Here are results for eight compounds from patent publication US12083101B2, “Biaryl derivatives as YAP/TAZ-TEAD protein-protein interaction inhibitors” (Novartis AG, priority 2020, dated 2024).

Experiment [1] concerns NCI-H2052 Tet-On shYAP_2371 pLenti6 MCAT_Luc cells (YAP-dependent transcription). The experiment in a line: YAP reporter gene activity assay (MCAT-luciferase), NCI-H2052. Format: cell-based. To be noted: Homo sapiens, NCI-H2052, 24 h, 24 hours incubation, BrightGlo luminescence. The protocol:
(§1) This cell line was also transduced with a Tet-pLKO-puro-based construct mediating tetracycline-inducible expression of a short-hairpin directed against the 3′UTR of the YAP1 mRNA (5′-[…]-3′).
(§2) Stock solutions of compounds were prepared at a concentration of 10 mM in DMSO and stored at 4° C. Where necessary to afford a full dose-response curve, the stock solutions were pre-diluted in DMSO to 1'000-fold the desired reduced start concentration. On the day after cell seeding, eleven 2-fold serial dilutions of each compound were dispensed directly into the cell assay plates using a HP 300D non-contact Digital Dispenser (TECAN, Mannedorf, Switzerland). The final concentration of DMSO was normalized to 0.1% in all wells.
The ability of compounds to inhibit YAP-dependent transcription was assessed in NCI-H2052 Tet-On shYAP_2371 pLenti6 MCAT_Luc cells, while specificity (lack of unspecific inhibition of luciferase expression of activity) was assessed in MKN-45/Ubc-luc cells. […] Following incubation for 24 hours at 37° C., compound-mediated modulation of reporter-gene activity was quantified 5 min after addition of 20 μl BrightGlo (Promega, Cat #E2620), by measuring luminescence intensity on a multi-mode plate-reader (TECAN, Männedorf, Switzerland, Integration time 100 ms). For data analysis, the assay background value determined in wells containing medium, but no cells, was subtracted from all data points. Dose-dependent compound effects were expressed as % of vehicle-treated control (luminescence signal produced by cells receiving DMSO only) and IC50s calculated using a four-parametric fit model.

For experiment [2], the system named is NCI-H2052 Tet-On shYAP_2371 pLenti6 MCAT_Luc cells. As to the kind of experiment: Proliferation assay (resazurin), NCI-H2052. Format: cell-based. To be noted: Homo sapiens, NCI-H2052, 72 h, 72 hours incubation. How it is done: as §1, §2
(§3) The functional effect of compounds on cell proliferation was assessed using NCI-H2052 Tet-On shYAP_2371 pLenti6 MCAT_Luc and MKN-45/Ubc-luc cells by quantifying the reducing capacity of live cells using the redox indicator dye resazurin. […] For data analysis, the assay background value determined in wells containing medium, but no cells, was subtracted from all data points. […] The effect of a particular test compound concentration on cell proliferation/viability was expressed as percentage of day 0-corrected fluorescence reading obtained for cells treated with vehicle only (DMSO, final concentration 0.1%), which was set as 100%, whereas the fluorescence reading for wells containing medium only, but no cells, was set as −100%. Compound concentrations leading to half-maximal growth inhibition (GI50) were determined using standard four parameter curve fitting.
In general terms: Resazurin is reduced to fluorescent resorufin, in cell work by metabolically active cells.

For experiment [3], the system named is MKN-45/Ubc-luc cells. As to the kind of experiment: Proliferation assay (resazurin), MKN-45. The experiment is classed as cell-based. To be noted: Homo sapiens, 72 hours incubation. How it is done:
As a specificity control, MKN-45 cells were stably transduced with a Ubc-Luc reporter construct, in which constitutive expression of firefly luciferase is driven by the promoter of the ubiquitin C housekeeping gene.
as §2, §3

The target of experiment [4] is Avi-humanTEAD4 217-434 / Cy5 labeled humanYAP 60-100 (Homo sapiens (Human), UniProt Q15561). As to the kind of experiment: TR-FRET YAP-TEAD4 in-vitro biochemical assay. Format: binding. To be noted: 1 nM Avi-humanTEAD4 217-434, 20 nM Cy5-humanYAP 60-100, 1 h room temperature. (In general: Time-resolved FRET reads energy transfer from a long-lived donor to a nearby acceptor.)

Experiment [5] concerns MKN-45/Ubc-luc cells. As to the kind of experiment: Reporter gene specificity control (Ubc-luciferase), MKN-45. To be noted: Homo sapiens, MKN-45, 24 h, read-out: Reporter gene assay MKN-45 IC50 [μM], MKN-45/Ubc-luc cells (YAP deleted, specificity control), 24 hours incubation. For orientation: A reporter such as luciferase makes a cellular process visible.

For orientation: GI50 means the concentration at which growth is held to half of that of the control.

Chain of Avi-humanTEAD4 217-434 / Cy5 labeled humanYAP 60-100 (Q15561 217-434): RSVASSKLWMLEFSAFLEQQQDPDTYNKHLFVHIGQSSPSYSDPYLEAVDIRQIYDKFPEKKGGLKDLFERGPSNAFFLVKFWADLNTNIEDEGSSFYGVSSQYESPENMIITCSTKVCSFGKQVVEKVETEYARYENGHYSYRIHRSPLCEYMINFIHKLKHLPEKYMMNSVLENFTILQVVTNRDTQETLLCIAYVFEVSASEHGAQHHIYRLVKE

`NC[C@@]1(c2ccccc2)Cc2c(ccc(Cl)c2-c2c(F)cccc2C(N)=O)O1` (atropisomer, axis not shown) [Example 4a-1, 2-((2S,4S)-2-(aminomethyl)-5-chloro-2-phenyl-2,3-dihydrobenzofuran-4-yl)-3-fluorobenzamide]: the values for the IC50 (in experiment [1]; in experiment [4]; in the experiment with MKN-45/Ubc-luc cells [5]) were 600 nM, 20 nM and above 10 µM, respectively. Moreover, the results for the GI50 (in experiment [2]; with MKN-45/Ubc-luc cells [3]) were 590 nM and above 10000 nM, respectively.
As for `NC[C@@]1(c2ccccc2)Cc2c(ccc(Cl)c2-c2c(C(N)=O)ccc(OCCO)c2F)O1` (atropisomer, axis not shown) [Example 10, 2-((2S,4S)-2-(aminomethyl)-5-chloro-2-phenyl-2,3-dihydrobenzofuran-4-yl)-3-fluoro-4-(2-hydroxyethoxy)benzamide], the IC50 in experiment [1] was 64 nM; in experiment [4], 3 nM; with MKN-45/Ubc-luc cells [5], above 10 µM. The GI50 in experiment [2] is 99 nM; in the experiment on MKN-45/Ubc-luc cells [3], above 10000 nM.
In the same order, the values of `NC[C@@]1(c2ccccc2)Cc2c(ccc(Cl)c2-c2c(C(N)=O)ccc(OC(F)F)c2F)O1` (atropisomer, axis not shown) [Example 11, 2-((2S,4S)-2-(aminomethyl)-5-chloro-2-phenyl-2,3-dihydrobenzofuran-4-yl)-4-(difluoromethoxy)-3-fluorobenzamide] are 173 nM, 21 nM, above 20 µM, 284 nM and above 10000 nM.
`C[C@H](O)COc1ccc(C(N)=O)c(-c2c(Cl)ccc3c2C[C@@](CN)(c2ccccc2)O3)c1F` (atropisomer, axis not shown) [Example 13, 2-((2S,4S)-2-(aminomethyl)-5-chloro-2-phenyl-2,3-dihydrobenzofuran-4-yl)-3-fluoro-4-((S)-2-hydroxypropoxy)benzamide]: the IC50 is 102 nM in experiment [1], 6 nM in experiment [4] and above 10 µM in the experiment with MKN-45/Ubc-luc cells [5]. In addition, the GI50 in experiment [2] was 166 nM; with MKN-45/Ubc-luc cells [3] it was above 10000 nM.
As to `C[C@@H](O)COc1ccc(C(N)=O)c(-c2c(Cl)ccc3c2C[C@@](CN)(c2ccccc2)O3)c1F` (atropisomer, axis not shown) [Example 14, 2-((2S,4S)-2-(aminomethyl)-5-chloro-2-phenyl-2,3-dihydrobenzofuran-4-yl)-3-fluoro-4-((R)-2-hydroxypropoxy)benzamide], the values for the IC50 (in experiment [1]; in experiment [4]; in the experiment with MKN-45/Ubc-luc cells [5]) were 176 nM, 15 nM and above 10 µM, respectively. Also, the GI50 was 190 nM in experiment [2] and above 10000 nM with MKN-45/Ubc-luc cells [3].
In the same order, the values of `C[C@@H](F)COc1ccc(C(N)=O)c(-c2c(Cl)ccc3c2C[C@@](CN)(c2ccccc2)O3)c1F` (atropisomer, axis not shown) [Example 15, 2-((2S,4S)-2-(aminomethyl)-5-chloro-2-phenyl-2,3-dihydrobenzofuran-4-yl)-3-fluoro-4-((R)-2-fluoropropoxy)benzamide] are 270 nM, 10 nM, above 10 µM, 276 nM and above 10000 nM.
Regarding `CNC(=O)c1ccc(OCCO)c(F)c1-c1c(Cl)c(F)cc2c1C[C@@](CN)(c1ccccc1)O2` (atropisomer, axis not shown) [Example 44, 2-((2S,4S)-2-(Aminomethyl)-5-chloro-6-fluoro-2-phenyl-2,3-dihydrobenzofuran-4-yl)-3-fluoro-4-(2-hydroxyethoxy)-N-methylbenzamide], the IC50 in experiment [1] is 69 nM; in the experiment on MKN-45/Ubc-luc cells [5] it was above 10 µM. Moreover, the GI50 was 109 nM in experiment [2] and above 10000 nM in the experiment with MKN-45/Ubc-luc cells [3].
For `CO[C@H]1c2c(cc(F)c(Cl)c2-c2c(C(N)=O)ccc(OCCO)c2F)O[C@]1(CN)c1ccccc1` (atropisomer, axis not shown) [Example 101, 2-((2S,3S,4S)-2-(Aminomethyl)-5-chloro-6-fluoro-3-methoxy-2-phenyl-2,3-dihydrobenzofuran-4-yl)-3-fluoro-4-(2-hydroxyethoxy)benzamide], the IC50 in experiment [1] is 67 nM; with MKN-45/Ubc-luc cells [5], above 10 µM. Also, the GI50 in experiment [2] is 106 nM; in the experiment with MKN-45/Ubc-luc cells [3], above 10000 nM.
